{
  "source": "patent US10703761B2",
  "about": "“Bile acid receptor modulators and methods of use thereof” (City of Hope, priority 2016, dated 2020)",
  "key": {"[1]": {"tested_on": "metabolic nuclear receptors", "assay": "Activation of metabolic nuclear receptors compared with native ligands", "type": "cell-based", "conditions": "10 μM", "protocol": "FIG. 2(A) HEK293 cells lacking or overexpressing TGR5 were treated with increasing doses of berberine for 16 hours and TGR5-reporting activity was evaluated using luciferase assays. FIG. 2(B) Ability of berberine to activate metabolic nuclear receptors was evaluated in comparison to native ligands. All ligands were used at a 10 μM concentration.\nOur current efforts are also aimed at extending these studies in vivo to murine type II diabetic models (using high fat diet feeding) with and without the TGR5 receptor. Confirmation of the berberine effect was evaluated using q-RT-PCR to assess activated TGR5 target genes including inflammatory gene expression and deiodinase-2."}, "[2]": {"target": "T1, Gal4 DNA binding domain FXR ligand-binding domain fusion protein (Homo sapiens, UniProt Q96RI1)", "T1 construct": "expressed in transfected cells; host or cells: HEK 293", "T1 sequence (Q96RI1 262-486 limits assumed)": "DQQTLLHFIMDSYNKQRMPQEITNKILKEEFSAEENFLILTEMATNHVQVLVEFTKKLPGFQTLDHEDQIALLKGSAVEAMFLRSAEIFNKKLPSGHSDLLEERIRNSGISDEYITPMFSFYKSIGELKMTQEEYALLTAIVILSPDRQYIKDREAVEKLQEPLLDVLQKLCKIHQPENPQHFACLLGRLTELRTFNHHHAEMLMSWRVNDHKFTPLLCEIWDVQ", "assay": "Gal4 DBD-FXR LBD chimera transactivation assay in HEK 293 cells", "type": "cell-based", "conditions": "CDCA 100 μM, compounds 10 μM", "protocol": "FIG. 10: Berberine derivatives inhibit FXR transactivation. HEK 293 cells were cotransfected with a luciferase reporter plasmid containing five copies of the Gal4 binding site and an expression vector for a Gal4 DNA binding domain FXR ligand-binding domain fusion protein, along with a CMX-β-gal internal control. CDCA: 100 μM, Compounds: 10 μM\nIn the presence of 100 μM CDCA, a concentration approximately threefold above that required for half-maximal activation of FXR, 10 μM selected berberine derivatives decreased FXR transactivation by nearly 50%."}, "[3]": {"conditions": "in vivo; cited from earlier work"}, "[4]": {"conditions": "oral 1.0 g/day/person for 3 months; cited from earlier work"}, "NCI-H716 cells": {"tested_on": "NCI-H716 cells", "conditions": "cited from earlier work"}, "DIO mice": {"tested_on": "DIO mice", "assay": "Hepatic lipid accumulation, Oil Red O staining", "type": "in vivo, mouse", "protocol": "FIG. 9(A). lean mice. FIG. 9(B). DIO mice, FIG. 9(C). berberine, and FIG. 9(D). DY319. Intracellular lipids were stained with Oil Red O and visualized by phase-contrast microscopy (×200 magnification).\nCells on day 7 were washed twice with PBS, fixed with 10% neutral buffered formalin for 1 h at room temperature, washed with PBS and then dried completely. The fixed cells were stained with Oil Red O in an isopropanol/distilled water (6:4) solution for 30 min at room temperature and then washed twice with distilled water. The stained lipid droplets were observed, and microscopic images were obtained from randomly selected fields under a phase contrast microscope (AX70; Olympus, Tokyo, Japan) equipped with a digital camera and processed using ImagePro Plus software (Media Cybernetics, Silver Spring, Md., USA)."}},
  "note": "“Also recorded” adds a separate entry of the source.",
  "data": [
    {"smiles": "COc1ccc2cc3[n+](cc2c1OC)CCc1cc2c(cc1-3)OCO2", "note": "[berberine]", "values": [
      {"measurement": "Activation of other metabolic nuclear receptors", "setting": "[1]", "value": "does not activate other metabolic nuclear receptors"},
      {"measurement": "Transactivation by GAL4 DBD-FXR LBD chimera", "setting": "[2]", "value": "did inhibit transactivation"},
      {"measurement": "Plasma concentration / gut restriction", "setting": "[3]", "value": "keeps low concentration in plasma"},
      {"measurement": "Efficacy and safety in type 2 diabetes and dyslipidemia", "setting": "[4]", "value": "effective and safe"},
      {"measurement": "Prohormone convertase 3 and proglucagon mRNA expression", "setting": "NCI-H716 cells", "value": "promoted both prohormone convertase 3 and proglucagon mRNA expression"},
      {"measurement": "GLP-1 release", "setting": "NCI-H716 cells; in vitro", "value": "modulated GLP-1 release; also recorded: concentration-dependently stimulated GLP-1 release"},
      {"measurement": "Hepatic lipid accumulation", "setting": "DIO mice", "value": "prevent hepatic lipid accumulation"}
    ]}
  ]
}
